Experimental findings from patent US10179767B2 (GENENTECH, INC., priority 2015, dated 2019) are described below.

This assay deals with T1, hNav1.7 (Homo sapiens, UniProt Q15858).
T1 construct: expressed in transfected cells
T1 sequence (Q15858 whole entry): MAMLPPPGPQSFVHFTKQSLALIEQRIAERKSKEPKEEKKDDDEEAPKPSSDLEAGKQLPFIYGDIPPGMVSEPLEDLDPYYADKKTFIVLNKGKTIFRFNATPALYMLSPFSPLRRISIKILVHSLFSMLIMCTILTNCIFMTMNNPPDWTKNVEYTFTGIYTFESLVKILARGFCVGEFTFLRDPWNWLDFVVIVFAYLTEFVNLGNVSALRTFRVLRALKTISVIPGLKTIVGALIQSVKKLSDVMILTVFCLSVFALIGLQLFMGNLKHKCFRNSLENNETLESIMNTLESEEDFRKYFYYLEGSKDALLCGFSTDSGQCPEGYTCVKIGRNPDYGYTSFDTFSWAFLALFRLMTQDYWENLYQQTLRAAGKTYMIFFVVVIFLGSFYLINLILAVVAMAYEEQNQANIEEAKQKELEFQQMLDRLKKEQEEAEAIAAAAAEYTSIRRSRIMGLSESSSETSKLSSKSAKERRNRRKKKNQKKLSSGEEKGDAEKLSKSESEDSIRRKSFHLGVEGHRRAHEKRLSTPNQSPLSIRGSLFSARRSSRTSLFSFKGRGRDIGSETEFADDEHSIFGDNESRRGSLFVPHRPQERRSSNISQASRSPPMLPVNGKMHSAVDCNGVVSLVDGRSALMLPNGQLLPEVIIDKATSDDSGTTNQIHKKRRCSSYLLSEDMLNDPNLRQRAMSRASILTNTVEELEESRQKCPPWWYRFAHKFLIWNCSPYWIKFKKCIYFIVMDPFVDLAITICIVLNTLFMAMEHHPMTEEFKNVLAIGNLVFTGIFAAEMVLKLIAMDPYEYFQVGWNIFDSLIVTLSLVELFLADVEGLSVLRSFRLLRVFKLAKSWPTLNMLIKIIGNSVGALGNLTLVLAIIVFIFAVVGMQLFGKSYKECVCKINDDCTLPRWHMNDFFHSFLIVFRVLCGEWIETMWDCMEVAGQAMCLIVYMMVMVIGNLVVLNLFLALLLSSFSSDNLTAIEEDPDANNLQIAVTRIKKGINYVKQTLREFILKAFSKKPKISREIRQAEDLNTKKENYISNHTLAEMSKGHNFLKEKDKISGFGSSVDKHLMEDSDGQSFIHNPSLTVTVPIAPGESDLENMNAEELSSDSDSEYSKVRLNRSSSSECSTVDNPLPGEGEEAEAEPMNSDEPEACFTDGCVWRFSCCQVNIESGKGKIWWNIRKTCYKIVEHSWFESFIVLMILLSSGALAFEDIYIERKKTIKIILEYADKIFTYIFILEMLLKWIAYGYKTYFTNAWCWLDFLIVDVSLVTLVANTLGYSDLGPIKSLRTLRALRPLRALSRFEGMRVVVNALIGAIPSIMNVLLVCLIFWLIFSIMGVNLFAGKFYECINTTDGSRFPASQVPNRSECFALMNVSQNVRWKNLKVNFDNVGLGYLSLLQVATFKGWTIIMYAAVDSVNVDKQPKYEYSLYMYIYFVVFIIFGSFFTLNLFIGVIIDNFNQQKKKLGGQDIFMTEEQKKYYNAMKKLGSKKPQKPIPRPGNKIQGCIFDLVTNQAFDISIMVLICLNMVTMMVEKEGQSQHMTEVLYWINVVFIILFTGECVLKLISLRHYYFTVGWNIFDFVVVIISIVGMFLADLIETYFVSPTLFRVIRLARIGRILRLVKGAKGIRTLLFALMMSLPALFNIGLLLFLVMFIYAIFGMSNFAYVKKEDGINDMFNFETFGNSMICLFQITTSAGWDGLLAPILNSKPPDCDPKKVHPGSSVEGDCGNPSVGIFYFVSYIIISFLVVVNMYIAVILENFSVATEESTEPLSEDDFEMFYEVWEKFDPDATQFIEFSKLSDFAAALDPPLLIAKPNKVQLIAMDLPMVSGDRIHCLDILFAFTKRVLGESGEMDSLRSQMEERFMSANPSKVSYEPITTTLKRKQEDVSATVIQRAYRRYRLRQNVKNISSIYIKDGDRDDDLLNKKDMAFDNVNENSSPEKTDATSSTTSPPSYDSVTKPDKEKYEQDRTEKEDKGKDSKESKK
T1 sequence (Q07699 19-218 partner): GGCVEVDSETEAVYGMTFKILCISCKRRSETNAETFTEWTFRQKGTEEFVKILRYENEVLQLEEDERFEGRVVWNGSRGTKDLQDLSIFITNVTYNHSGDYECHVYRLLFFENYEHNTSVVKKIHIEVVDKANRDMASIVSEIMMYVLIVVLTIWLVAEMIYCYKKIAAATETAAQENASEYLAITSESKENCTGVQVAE
The assay can be described thus: Tritiated sulfonamide binding to membranes from cells expressing hNav1.7 and the β1 subunit (Nav 1.7 ligand binding assay, competitive). The settings on record: competition with 100 pM [3H]compound, room temperature, 18 h. The protocol:
Tritiated Sulfonamide Binding to Membranes Isolated from Cells that Heterologously Express hNav1.7 and the β1 Subunit
Preparation of membranes containing recombinantly expressed sodium channels: Frozen recombinant cell pellets were thawed on ice and diluted to 4 times the cell pellet weight with ice cold 50 mM Tris HCl, pH 7.4 buffer. The cell suspensions were homogenized on ice using a motorized glass dounce homogeniser. Homogenates were further diluted 8.4 times with ice cold 50 mM Tris HCl, pH 7.4 buffer and then centrifuged at 200×g at 4° C. for 15 min. The supernatants were collected and centrifuged at 10000×g at 4° C. for 50 min. The pellets were then re-suspended in 100 mM NaCl, 20 mM Tris HCl, pH 7.4 buffer containing 1% v/v protease inhibitors (Calbiochem) and re-homogenized on ice. The homogenized membranes were then processed through a syringe equipped with a 26 gauge needle. Protein concentrations were determined by Bradford Assay and the membranes were stored at −80° C.
Radioligand Binding Studies:
Saturation experiments. A competitive NaV1.7 inhibitor having a methyl group was tritiated. Three tritiums were incorporated in place of methyl hydrogens to generate [^3H]compound. Binding of this radioligand was preformed in 5 mL borosilicate glass test tubes at room temperature. Binding was initiated by adding membranes to increasing concentrations of [^3H]compound in 100 mM NaCl, 20 mM Tris HCl, pH 7.4 buffer containing 0.01% w/v bovine serum albumin (BSA) for 18 h. Non-specific binding was determined in the presence of 1 μM unlabelled compound. After 18 h, the reactants were filtered through GF/C glass fiber filters presoaked in 0.5% w/v polyethylene imine Filters were washed with 15 mL ice cold 100 mM NaCl, 20 mM Tris HCl, pH7.4 buffer containing 0.25% BSA to separate bound from free ligand. [^3H]compound bound to filters was quantified by liquid scintillation counting.
Competitive Binding Experiments:
Binding reactions were preformed in 96-well polypropylene plates at room temperature for 18 h. In 360 μL, membranes were incubated with 100 pM [^3H]compound and increasing concentrations of Test Compound. Non-specific binding was defined in the presence of 1 μM unlabelled compound. Reactions were transferred and filtered through 96-well glass fiber/C filter plates presoaked with 0.5% polyethylene imine. The filtered reactions were washed 5 times with 200 μL ice cold buffer containing 0.25% BSA. Bound radioactivity was determined by liquid scintillation counting. Data Analysis: For saturation experiments, non-specific binding was subtracted from total binding to provide specific binding and these values were recalculated in terms of pmol ligand bound per mg protein. Saturation curves were constructed and dissociation constants were calculated using the single site ligand binding model: Beq=(Bmax*X)/(X+Kd), where Beq is the amount of ligand bound at equilibrium, Bmax is the maximum receptor density, Kd is the dissociation constant for the ligand, and X is the free ligand concentration. For competition studies percent inhibition was determined and IC50 values were calculated using a 4 parameter logistic model (% inhibition=(A+((B−A)/(1+((x/C)⨣D)))) using XLfit, where A and B are the maximal and minimum inhibition respectively, C is the IC50 concentration and D is the (Hill) slope.
On to `CCS(=O)(=O)NC(=O)c1cc(C2CC2)c(OCC2CCN([C@H](C)c3cc(Cl)cc(Cl)c3F)CC2)cc1F` (single isomer, unassigned) [Example 33], for which the half-maximal inhibitory concentration (IC50) (in general, the concentration that gives 50% inhibition) came to 2.4 nM. `CS(=O)(=O)NC(=O)c1cc(C2CC2)c(OCC2CCN([C@@H](c3cc(Cl)cc(Cl)c3)C3COC3)CC2)cc1F` (single isomer, unassigned) [Example 35] came in with a half-inhibitory concentration (IC50) of 8.2 nM. This IC50 lies about 3.4-fold higher than the previous one. Turning to `CS(=O)(=O)NC(=O)c1cc(C2CC2)c(OCC2(F)CCN(Cc3cc(F)cc(Cl)c3)CC2)cc1F` [Example 30, 4-((1-(3-Chloro-5-fluorobenzyl)-4-fluoropiperidin-4-yl)methoxy)-5-cyclopropyl-2-fluoro-N-(methylsulfonyl)benzamide], the concentration for half-maximal inhibition (IC50) came to 4.9 nM. This IC50 is about 1.7-fold lower than that of the compound before. For `C[C@H](c1cc(F)cc(Cl)c1)N1CCC(F)(COc2cc(F)c(C(=O)NS(C)(=O)=O)cc2C2CC2)CC1` (single isomer, unassigned) [Example 25] the value was 2 nM; for `CS(=O)(=O)NC(=O)c1ccc(OCC2CCN(Cc3cc(C(F)(F)F)cc(Cl)c3F)CC2)c(C2CC2)c1` [Example 62, 4-((1-(3-chloro-2-fluoro-5-(trifluoromethyl)benzyl)piperidin-4-yl)methoxy)-3-cyclopropyl-N-(methylsulfonyl)benzamide], 9.8 nM. `COCC(c1cc(Cl)cc(Cl)c1F)N1CCC(COc2cc(F)c(C(=O)NS(C)(=O)=O)cc2C2CC2)CC1` (stereo not drawn) [Example 21, 5-cyclopropyl-4-((1-(1-(3,5-dichloro-2-fluorophenyl)-2-methoxyethyl)piperidin-4-yl)methoxy)-2-fluoro-N-(methylsulfonyl)benzamide]: the IC50 was found to be 4.4 nM. As for `CS(=O)(=O)NC(=O)c1cc(C2CC2)c(OCC2CCN(Cc3cc(Cl)cc(C4CC4)n3)CC2)cc1F` [Example 49, 4-((1-((4-chloro-6-cyclopropylpyridin-2-yl)methyl)piperidin-4-yl)methoxy)-5-cyclopropyl-2-fluoro-N-(methylsulfonyl)benzamide], the concentration for half-maximal inhibition (IC50) was found to be 11 nM.

`O=C(NS(=O)(=O)C1CC1)c1cc(C2CC2)c(OCC2CCN(Cc3cc(Cl)cc(C(F)(F)F)n3)CC2)cc1F` [Example 54]: the half-maximal inhibitory concentration (IC50) came out at 4.2 nM. The figure for `COc1c(Cl)cc(Cl)cc1CN1CCC(COc2cc(F)c(C(=O)NS(C)(=O)=O)cc2C2CC2)CC1` [Example 14, 5-Cyclopropyl-4-((1-(3,5-dichloro-2-methoxybenzyl)piperidin-4-yl)methoxy)-2-fluoro-N-(methylsulfonyl)benzamide] is 6.5 nM; for `C[C@H](c1cc(C(F)(F)F)cc(Cl)c1F)N1CCC(C#N)(COc2cc(F)c(C(=O)NS(C)(=O)=O)cc2C2CC2)CC1` (single isomer, unassigned) [Example 8] it is 9.8 nM. The figure for `C[C@@H](c1ccc(F)c(Cl)c1)N1CCC(COc2cc(F)c(C(=O)NS(C)(=O)=O)cc2C2CC2)CC1` (single isomer, unassigned) [Example 36] is 6 nM; for `C[C@@H](c1ccc(F)cc1Cl)N1CCC(F)(COc2cc(F)c(C(=O)NS(C)(=O)=O)cc2C2CC2)CC1` (single isomer, unassigned) [Example 18] it is 10 nM.

Compound `CS(=O)(=O)NC(=O)c1cc(C2CC2)c(O[C@H]2CN(Cc3ccc(F)cc3Cl)CC[C@@H]2F)cc1F` (relative stereo) [Example 45, trans 4-((1-(2-chloro-4-fluorobenzyl)-4-fluoropiperidin-3-yl)oxy)-5-cyclopropyl-2-fluoro-N-(methylsulfonyl)benzamide] had an IC50 of 83 nM. For `CS(=O)(=O)NC(=O)c1cc(C2CC2)c(OCC2(F)CCN(Cc3cc(C(F)(F)F)cc(C4CC4)n3)CC2)cc1F` [Example 43, 5-cyclopropyl-4-((1-((6-cyclopropyl-4-(trifluoromethyl)pyridin-2-yl)methyl)-4-fluoropiperidin-4-yl)methoxy)-2-fluoro-N-(methylsulfonyl)benzamide] the value was 9.8 nM; for `N#Cc1c(Cl)cc(Cl)cc1CN1CCC(COc2cc(F)c(C(=O)NS(=O)(=O)C3CC3)cc2C2CC2)CC1` [Example 17, 5-Cyclopropyl-N-(cyclopropylsulfonyl)-4-((1-(3,5-dichloro-2-cyanobenzyl)piperidin-4-yl)methoxy)-2-fluorobenzamide], 5.9 nM; for `C[C@@H](c1cc(Cl)c(F)c(Cl)c1)N1CCC(COc2cc(F)c(C(=O)NS(C)(=O)=O)cc2C2CC2)CC1` (single isomer, unassigned) [Example 38], 3.1 nM. For `C[C@H](c1cc(Cl)cc(Cl)c1C#N)N1CCC(COc2cc(F)c(C(=O)NS(C)(=O)=O)cc2C2CC2)CC1` (single isomer, unassigned) [Example 1] the value was 8.8 nM; for `CC(c1cc(Cl)cc(Cl)c1)N1CCC(COc2ccc(C(=O)NS(C)(=O)=O)cc2C2CC2)CC1` (stereo not drawn) [Example 61, 3-cyclopropyl-4-((1-(1-(3,5-dichlorophenyl)ethyl)piperidin-4-yl)methoxy)-N-(methylsulfonyl)-benzamide], 10 nM. Consider `O=C(NS(=O)(=O)C1CC1)c1cc(C2CC2)c(OCC2(F)CCN(c3cc(C(F)(F)F)c(Cl)cn3)CC2)cc1F` [Example 59, 4-((1-(5-chloro-4-(trifluoromethyl)pyridin-2-yl)-4-fluoropiperidin-4-yl)methoxy)-5-cyclopropyl-N-(cyclopropylsulfonyl)-2-fluorobenzamide], for which the half-maximal inhibitory concentration (IC50) stood at 9.3 nM. For `COC1(COc2cc(F)c(C(=O)NS(C)(=O)=O)cc2C2CC2)CCN(Cc2cc(C(F)(F)F)cc(Cl)c2F)CC1` [Example 7, 4-((1-(3-Chloro-2-fluoro-5-(trifluoromethyl)benzyl)-4-methoxypiperidin-4-yl)methoxy)-5-cyclopropyl-2-fluoro-N-(methylsulfonyl)benzamide] the value was 7.9 nM.

Consider `CC(c1cc(Cl)cc(C2CC2)n1)N1CCC(COc2cc(F)c(C(=O)NS(=O)(=O)C3CC3)cc2C2CC2)CC1` (stereo not drawn) [Example 47, 4-((1-(1-(4-chloro-6-cyclopropylpyridin-2-yl)ethyl)piperidin-4-yl)methoxy)-5-cyclopropyl-N-(cyclopropylsulfonyl)-2-fluorobenzamide], for which the half-inhibitory concentration (IC50) amounted to 9.9 nM. `C[C@H](c1cc(Cl)c(F)c(Cl)c1)N1CCC(COc2cc(F)c(C(=O)NS(C)(=O)=O)cc2C2CC2)CC1` (single isomer, unassigned) [Example 37] registered an IC50 of 3 nM. The figure for `CC(C)Oc1ncc(CN2CCC(F)(COc3cc(F)c(C(=O)NS(C)(=O)=O)cc3C3CC3)CC2)cc1Cl` [Example 55, 4-((1-((5-chloro-6-isopropoxypyridin-3-yl)methyl)-4-fluoropiperidin-4-yl)methoxy)-5-cyclopropyl-2-fluoro-N-(methylsulfonyl)benzamide] is 5.6 nM; for `CS(=O)(=O)NC(=O)c1cc(C2CC2)c(OCC2CCN(Cc3cc(Cl)cc(C(F)(F)F)c3C#N)CC2)cc1F` [Example 4, 4-((1-(5-Chloro-2-cyano-3-(trifluoromethyl)benzyl)piperidin-4-yl)methoxy)-5-cyclopropyl-2-fluoro-N-(methylsulfonyl)benzamide] it is 6.6 nM; for `CS(=O)(=O)NC(=O)c1cc(C2CC2)c(OCC2CCN(Cc3cc(Cl)cc(OC4CC4)c3)CC2)cc1F` [Example 28, 4-((1-(3-Chloro-5-cyclopropoxybenzyl)piperidin-4-yl)methoxy)-5-cyclopropyl-2-fluoro-N-(methylsulfonyl)benzamide] it is 6 nM. For `CS(=O)(=O)NC(=O)c1ccc(OCC2CCN(Cc3cc(C(F)(F)F)ccc3Cl)CC2)c(C2CC2)c1` [Example 60, 4-((1-(2-chloro-5-(trifluoromethyl)benzyl)piperidin-4-yl)methoxy)-3-cyclopropyl-N-(methylsulfonyl)benzamide] the value was 8.1 nM; for `CS(=O)(=O)NC(=O)c1cc(C2CC2)c(OCC2(F)CCN(Cc3cc(C(F)(F)F)ccc3Cl)CC2)cc1F` [Example 63, 4-((1-(2-chloro-5-(trifluoromethyl)benzyl)-4-fluoropiperidin-4-yl)methoxy)-5-cyclopropyl-2-fluoro-N-(methylsulfonyl)benzamide], 7 nM.
